Measurements taken from patent US20240174639A1, “PYRIDINE DERIVATIVES USEFUL AS HCN2 MODULATORS” (King's College London, priority 2021, published 2024).
Where a name gives a salt, the structure may show the parent alone.

How the values were obtained:
Type in all cases: cell-based
HCN2 [1] = molecular target: T1, HCN2 (Homo sapiens, UniProt Q9UL51); experiment: HCN2 assay using PatchXpress 7000A (Example 50A); settings: PatchXpress protocol (PX)
T1 sequence (Q9UL51 1-889): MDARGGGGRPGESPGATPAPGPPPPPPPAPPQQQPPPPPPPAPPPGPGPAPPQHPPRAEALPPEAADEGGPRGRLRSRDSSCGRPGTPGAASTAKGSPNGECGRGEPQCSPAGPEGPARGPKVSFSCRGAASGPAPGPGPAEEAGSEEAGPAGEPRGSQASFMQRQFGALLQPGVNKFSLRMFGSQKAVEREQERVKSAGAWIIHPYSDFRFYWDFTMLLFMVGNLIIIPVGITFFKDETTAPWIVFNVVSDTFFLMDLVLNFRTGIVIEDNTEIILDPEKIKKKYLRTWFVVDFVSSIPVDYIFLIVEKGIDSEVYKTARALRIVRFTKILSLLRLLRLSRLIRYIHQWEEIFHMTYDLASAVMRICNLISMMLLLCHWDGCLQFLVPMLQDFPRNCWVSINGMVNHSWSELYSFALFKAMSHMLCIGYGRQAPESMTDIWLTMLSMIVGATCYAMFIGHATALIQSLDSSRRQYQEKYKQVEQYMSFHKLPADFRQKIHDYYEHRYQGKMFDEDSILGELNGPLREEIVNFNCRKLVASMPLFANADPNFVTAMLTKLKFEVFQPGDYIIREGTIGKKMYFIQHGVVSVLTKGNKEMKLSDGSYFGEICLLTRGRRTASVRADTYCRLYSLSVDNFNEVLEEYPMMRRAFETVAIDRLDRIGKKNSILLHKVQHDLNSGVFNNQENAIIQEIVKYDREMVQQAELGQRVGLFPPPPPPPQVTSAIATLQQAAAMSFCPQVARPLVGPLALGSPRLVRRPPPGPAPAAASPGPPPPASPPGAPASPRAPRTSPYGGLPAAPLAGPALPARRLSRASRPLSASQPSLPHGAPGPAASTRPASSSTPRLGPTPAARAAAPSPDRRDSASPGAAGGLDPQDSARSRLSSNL
From the text: (§1) Solutions for recording HON currents were:
For HCN1 and HCN2, the pulse protocol involved stepping from a holding potential of −30 mV to −110 mV (see FIG. 1A) for 2 seconds to evoke the current. The membrane voltage was then stepped back to −30 mV for a further 8 seconds. This sequence was evoked repeatedly every 10 seconds throughout the experiment, starting prior to drug (Control A) and during cumulative additions of 5 increasing compound concentrations, then finally a 100% inhibiting concentration of cesium chloride (CsCl, 3 mM).
(§2) The peak inward current measured at the end of the pulse to −110 mV (HCN1 and HCN2) or −130 mV (HCN4) was measured and any leak current subtracted to calculate the HCN current. The HCN current amplitude was measured after each control or compound addition and normalized to the control amplitude (Control A).
(§3) All experiments were performed at room temperature (approximately 22° C.).
(§4) Each test compound concentration was applied to the cell for seven (7) minutes, at which point the next cumulative concentration was applied. 3 mM CsCl was applied to each cell for 2 minutes at the end of each experiment (Control B) to determine 100% inhibition level of the HCN current.

HCN4 [2] = molecular target: T2, HCN4 (Homo sapiens, UniProt Q9Y3Q4); experiment: HCN4 assay using PatchXpress 7000A (Example 50A); settings: PatchXpress protocol (PX)
T2 sequence (Q9Y3Q4 1-1203): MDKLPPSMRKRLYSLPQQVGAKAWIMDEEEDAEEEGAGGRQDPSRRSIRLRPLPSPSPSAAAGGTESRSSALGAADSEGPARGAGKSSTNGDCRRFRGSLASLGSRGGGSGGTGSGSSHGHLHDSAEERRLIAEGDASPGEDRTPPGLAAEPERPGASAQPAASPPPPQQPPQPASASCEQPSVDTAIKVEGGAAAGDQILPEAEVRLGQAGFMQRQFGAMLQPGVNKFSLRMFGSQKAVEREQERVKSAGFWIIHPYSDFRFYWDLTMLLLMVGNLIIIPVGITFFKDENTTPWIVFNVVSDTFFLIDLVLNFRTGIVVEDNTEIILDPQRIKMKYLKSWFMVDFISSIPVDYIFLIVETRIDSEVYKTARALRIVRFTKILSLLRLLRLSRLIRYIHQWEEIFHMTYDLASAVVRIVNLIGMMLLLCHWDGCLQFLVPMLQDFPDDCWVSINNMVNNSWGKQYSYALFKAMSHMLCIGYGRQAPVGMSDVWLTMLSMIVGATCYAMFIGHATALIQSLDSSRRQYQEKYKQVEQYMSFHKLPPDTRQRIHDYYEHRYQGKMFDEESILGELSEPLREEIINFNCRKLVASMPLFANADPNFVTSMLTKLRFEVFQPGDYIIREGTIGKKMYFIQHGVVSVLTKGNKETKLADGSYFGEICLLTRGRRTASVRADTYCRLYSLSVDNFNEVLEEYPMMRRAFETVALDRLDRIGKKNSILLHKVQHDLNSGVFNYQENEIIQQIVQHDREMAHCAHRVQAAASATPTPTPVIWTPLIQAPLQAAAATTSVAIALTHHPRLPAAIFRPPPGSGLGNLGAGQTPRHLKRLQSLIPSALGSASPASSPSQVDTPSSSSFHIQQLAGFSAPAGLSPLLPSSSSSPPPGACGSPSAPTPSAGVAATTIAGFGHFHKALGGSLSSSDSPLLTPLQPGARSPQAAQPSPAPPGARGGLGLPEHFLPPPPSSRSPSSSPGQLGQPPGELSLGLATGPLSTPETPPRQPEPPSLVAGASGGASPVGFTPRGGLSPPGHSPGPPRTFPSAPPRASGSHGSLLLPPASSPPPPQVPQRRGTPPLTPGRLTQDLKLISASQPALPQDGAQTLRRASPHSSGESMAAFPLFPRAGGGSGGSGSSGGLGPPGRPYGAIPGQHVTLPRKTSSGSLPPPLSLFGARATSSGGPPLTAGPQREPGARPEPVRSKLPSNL
Procedure: as §1
For HCN4, the pulse protocol involved stepping from a holding potential of −30 mV to −130 mV (see FIG. 1B) for 4 seconds to evoke the current.
as §2, §3, §4

HCN4 [3] = molecular target: T2, HCN4; experiment: HCN4 assay using the Sophion Qube (Example 50B); settings: Sophion Qube protocol (SQ)
Procedure: Solutions for recording HCN currents were: [table] For HCN4, the cells were held at −30 mV and then stepped to −130 mV for 4 seconds before stepping back to −30 mV, this represents 1 experimental sweep. This voltage protocol was applied every 20 seconds for the duration of the experiment. Both the vehicle (0.3% DMSO) and full block (3 mM CsCl) addition periods were applied for 10 experimental sweeps each. The compound addition period was applied for 30 sweeps. The currents evoked by the step to −110 mV (HCN1 and HCN2) or −130 mV (HCN4) were measured for the analysis of the percentage inhibition by test compounds. The current amplitudes were measured by subtracting metric A from metric B (see FIG. 2) with inhibition calculated by normalising to the vehicle addition (0.3% DMSO) and full inhibition by 3 mM CsCl in the same well. […] In total, compound was applied to the well for 600 seconds.

HCN2 [4] = molecular target: T1, HCN2; experiment: HCN2 assay using the Sophion Qube (Example 50B); settings: Sophion Qube protocol (SQ)
Procedure: Solutions for recording HCN currents were:
For HCN1 and HCN2 the cells were held at −30 mV and then stepped to −110 mV for 2 seconds before stepping back to −30 mV, this represents 1 experimental sweep. This voltage protocol was applied every 20 seconds for the duration of the experiment. Both the vehicle (0.3% DMSO) and full block (3 mM CsCl) addition periods were applied for 10 experimental sweeps each. The compound addition period was applied for 30 sweeps.
The currents evoked by the step to −110 mV (HCN1 and HCN2) or −130 mV (HCN4) were measured for the analysis of the percentage inhibition by test compounds. The current amplitudes were measured by subtracting metric A from metric B (see FIG. 2) with inhibition calculated by normalising to the vehicle addition (0.3% DMSO) and full inhibition by 3 mM CsCl in the same well.
In total, compound was applied to the well for 600 seconds.

Row | IC50 (HCN2 [1]) [µM] | IC50 (HCN4 [2]) [µM] | IC50 (HCN4 [3]) [µM] | IC50 (HCN2 [4]) [µM] | Compound
1 | 1.1 | ≥ 30 |  |  | CS(=O)(=O)c1ccc(F)c(C[C@H](N)c2ncccc2-n2ncc3ccccc32)n1 [Example 21, (S)-1-[3-(1H-indazole-1-yl)pyridine-2-yl]-2-(3-fluoro-6-methyl-sulfonylpyridine-2-yl)-ethan-1-amine formate]
2 | 0.32 | 13.4 |  |  | N#Cc1nc(C[C@H](N)c2ncccc2-n2ncc3ccccc32)ccc1F [Example 22, (S)-6-{2-[3-(1H-ind-azol-1-yl)pyridine-2-yl]-2-aminoethyl}-3-fluoropyridine-2-carbonitrile hydro-chloride]
3 | 0.18 | 7.5 |  |  | N#Cc1ccc(F)c(C[C@H](N)c2ncccc2-n2ncc3ccccc32)n1 [Example 23, (S)-6-{2-[3-(1H-ind-azol-1-yl)pyridine-2-yl]-2-aminoethyl}-5-fluoropyridine-2-carbonitrile formate]
4 | 0.34 | 1.6 |  |  | CCc1ccc(F)c(C[C@H](N)c2ncccc2-n2ncc3ccccc32)n1 [Example 25, (S)-1-[3-(1H-indazole-1-yl)pyridine-2-yl]-2-(3-fluoro-6-ethylpyr-idine-2-yl)ethan-1-amine hydrochloride]
5 | 0.015 | 0.5 |  |  | Cc1cc(F)cnc1C[C@H](N)c1ncccc1-n1ncc2ccccc21 [Example 26, (S)-1-[3-(1H-indazole-1-yl)pyridine-2-yl]-2-(5-fluoro-3-methyl-pyridine-2-yl)ethan-1-amine hydrochloride]
6 | 1 | > 30 |  |  | N[C@@H](Cc1ncccc1F)c1ncccc1-n1ncc2cc(F)ccc21 [Example 28, (S)-1-[3-(5-Fluoro-1H-indazole-1-yl)pyridine-2-yl]-2-(3-fluoropyr- -idine-2-yl)ethan-1-amine hydrochloride]
7 |  |  | 22.5 | 0.9 | Cc1cccnc1C[C@H](N)c1ncccc1-n1ncc2cc(Br)ccc21 [Example 30, (S)-1-[3-(5-Bromo-1H-indazole-1-yl)pyridine-2-yl]-2-(3-methylpyr-idine-2-yl)ethan-1-amine hydrochloride]
8 |  |  |  | 28.6 | COc1ccc2c(cnn2-c2cccnc2[C@@H](N)Cc2ncccc2F)c1 [Example 32, (S)-2-(3-fluoropyridine-2-yl)-1-[3-(5-methoxy-1H-indazole-1-yl)-pyridine-2-yl]ethan-1-amine hydrochloride]
9 |  |  |  | 4.9 | Cc1ccc(C#N)nc1C[C@H](N)c1ncccc1-n1ncc2cc(C(F)(F)F)ccc21 [Example 33, (S)-6-{2-Amino-2-[3-(5-trifluoromethyl-1H-indazol-1-yl)pyridine-2-yl]ethyl}-5-methyl-pyridine-2-carbonitrile hydrochloride]
10 |  |  |  | 4.5 | Cc1ccc(F)c(C[C@H](N)c2ncccc2-n2ncc3cc(F)ccc32)n1 [Example 34, (S)-1-[3-(5-Fluoro-1H-indazole-1-yl)pyridine-2-yl]-2-(3-fluoro-6-methylpyridine-2-yl)-ethan-1-amine hydro-chloride]
11 |  |  | 4.3 | 0.46 | Cc1ccc(C#N)nc1C[C@H](N)c1ncccc1-n1ncc2cc(Cl)ccc21 [Example 35, (S)-6-{2-Amino-2-[3-(5-chloro-1H-indazol-1-yl)pyridine-2-yl]-ethyl}-5-methylpyr-idine-2-carbonitrile]
12 |  |  |  | 6.7 | COc1ccc2c(cnn2-c2cccnc2[C@@H](N)Cc2nc(C#N)ccc2F)c1 [Example 37]
13 |  |  |  | 11.7 | N[C@@H](Cc1ncccc1F)c1ncccc1-n1ncc2cc(C(F)(F)F)ccc21 [Example 40, (S)-1-[3-(5-Trifluoro-methyl-1H-indazole-1-yl)pyridine-2-yl]-2-(3-fluoropyridine-2-yl)-ethan-1-amine hydro-chloride]
14 |  |  |  | 4.9 | Cc1ccc(C#N)nc1C[C@H](N)c1cnccc1-n1ncc2cc(Cl)ccc21 [Example 42, (S)-6-{2-Amino-2-[4-(5-chloro-1H-indazol-1-yl)pyridine-3-yl]-ethyl}-5-methylpyr-idine-2-carbonitrile hydrochloride]
15 |  |  |  | 0.78 | N#Cc1ccc(F)c(C[C@H](N)c2ncccc2-n2ncc3cc(Br)ccc32)n1 [Example 43, (S)-6-{2-Amino-2-[3-(5-bromo-1H-indazol-1-yl)pyridine-2-yl-ethyl}-5-fluoropyr-idine-2-carbonitrile hydrochloride]
16 |  |  |  | 1.5 | Cc1ccc(F)c(C[C@H](N)c2ncccc2-n2ncc3cc(Cl)ccc32)n1 [Example 44, (S)-1-[3-(5-Chloro-1H-indazole-1-yl)pyridine-2-yl]-2-(3-fluoro-6-methylpyridine-2-yl)-ethan-1-amine hydro-chloride]
17 |  |  |  | 1.2 | N#Cc1nc(C[C@H](N)c2ncccc2-n2ncc3cc(Br)ccc32)ccc1F [Example 46, (S)-6-{2-Amino-2-[3-(5-bromo-1H-indazol-1-yl)pyridine-2-yl]-ethyl}-3-fluoropyr-idine-2-carbonitrile hydrochloride]
